Literature values in patent US12594238B2, “Low hygroscopicity active powder compositions” (PHILIP MORRIS PRODUCTS S.A., priority 2020, dated 2026).

Settings: at 25° C.

SMILES: OC[C@H]1O[C@H](O[C@H]2O[C@H](CO)[C@@H](O)[C@H](O)[C@H]2O)[C@H](O)[C@@H](O)[C@@H]1O [trehalose]
- solubility: 69 g/100 ml water
